One may read the pIC50 as the IC50 on a negative log10 scale, so that one unit is a factor of ten. A higher pIC50 goes with a low IC50.

The results in this text go back to ChEMBL document CHEMBL3091353, “Trisubstituted and tetrasubstituted pyrazolines as a novel class of cell-growth inhibitors in tumor cells with wild type p53” (Bioorg Med Chem, 2013).

pIC50: −log10 of the molar value. Activity calls are given as the source filed them. The rule behind the calls is not given here.

Chain of Cellular tumor antigen p53 (Homo sapiens) (P04637 whole entry, looked up): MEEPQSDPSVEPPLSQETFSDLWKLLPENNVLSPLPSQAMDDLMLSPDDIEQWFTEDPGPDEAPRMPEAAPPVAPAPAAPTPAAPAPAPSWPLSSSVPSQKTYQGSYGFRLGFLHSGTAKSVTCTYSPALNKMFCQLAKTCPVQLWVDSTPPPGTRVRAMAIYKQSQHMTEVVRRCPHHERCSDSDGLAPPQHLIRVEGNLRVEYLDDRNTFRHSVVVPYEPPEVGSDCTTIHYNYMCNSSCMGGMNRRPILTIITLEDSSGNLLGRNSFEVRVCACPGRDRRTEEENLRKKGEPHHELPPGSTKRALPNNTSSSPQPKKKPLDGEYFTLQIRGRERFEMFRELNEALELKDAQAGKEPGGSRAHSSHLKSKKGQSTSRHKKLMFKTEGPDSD

For one series, the system named is HCT-116. In words: Cytotoxicity against human HCT116 cells at 20 uM after 72 hrs by CellTiterGlo luciferase-based assay. Format: functional, cell-based.
Conditions: not given
(In general: In ATP-based viability assays light output follows the ATP content of the culture.)
As for `COc1ccc(C2=NN(c3cccc(Cl)c3)C(c3ccccc3Cl)C2)cc1` (stereo not drawn), the inhibition result is “Active”.

Another series concerns HCT-116. In words: Cytotoxicity against human HCT116 cells after 72 hrs by CellTiterGlo luciferase-based assay. It counts as functional, cell-based. The following applies: HCT-116, 72 h.
`COc1cccc(C2=NN(c3ccc(Cl)cc3)C(c3cccc(Cl)c3)C2)c1` (stereo not drawn) had a negative logarithm of the IC50 (pIC50) of 4.73.

`COc1ccc(C2=N[C@@H](c3ccc(Cl)cc3)[C@@H](c3ccc(Cl)cc3)N2C(=O)N2CCNC(=O)C2)c(OC(C)C)c1` [NUTLIN-3] gave a pIC50 of 5.80.

Take `CCOc1ccccc1C1=NN(c2ccc(Cl)cc2)C(c2ccc(Cl)cc2)C1C(=O)N1CCOCC1` (stereo not drawn): the pIC50 is 5.10.

As for `CC(C)(C)C1=NN(c2ccc(Br)cc2)C(c2ccc(Cl)cc2)C1` (stereo not drawn), the pIC50 was 5.37.

`CC(C)(C)C1=NN(c2ccc(Cl)cc2)C(c2ccc(Cl)cc2)C1C(=O)N1CCOCC1` (stereo not drawn) showed a pIC50 of 5.46.

Molecule `CC(C)(C)C1=NN(c2ccc(Cl)cc2)C(c2ccc(Cl)c(Cl)c2)C1` (stereo not drawn) gave a pIC50 of 5.28.

Turning to `COc1ccc(C2=NN(c3ccccc3Cl)C(c3cccc(Cl)c3)C2)cc1` (stereo not drawn), the pIC50 is 5.82.

`CC(C)(C)C1=NN(c2ccc(Cl)cc2)C(c2ccc(Cl)cc2)C1` (stereo not drawn): the pIC50 is 4.76.

Turning to `CC(C)(C)C1=NN(c2ccc(Cl)cc2)C(c2ccc3ccccc3c2)C1` (stereo not drawn), the pIC50 was 4.90.

Take `COc1cccc(C2=NN(c3ccccc3Cl)C(c3ccccc3Cl)C2)c1` (stereo not drawn): the pIC50 was 5.60.

As for `COc1ccccc1C1=NN(c2cccc(Cl)c2)C(c2cccc(Cl)c2)C1` (stereo not drawn), the pIC50 is 5.80.

For `COc1ccccc1C1=NN(c2ccccc2Cl)C(c2cccc(Cl)c2)C1` (stereo not drawn), the pIC50 was 5.72.

The target in the next series is E3 ubiquitin-protein ligase Mdm2 (Homo sapiens) (UniProt Q00987). Put plainly: Displacement of carboxyfluorescein-labeled LTFEHYWAQLTS-FAM from human MDM2 (16 to 116) expressed in Escherichia coli C41 at 0.005 to 1 mM by fluorescence anisotropic analysis.
Chain of E3 ubiquitin-protein ligase Mdm2 (Homo sapiens) (Q00987 whole entry, looked up): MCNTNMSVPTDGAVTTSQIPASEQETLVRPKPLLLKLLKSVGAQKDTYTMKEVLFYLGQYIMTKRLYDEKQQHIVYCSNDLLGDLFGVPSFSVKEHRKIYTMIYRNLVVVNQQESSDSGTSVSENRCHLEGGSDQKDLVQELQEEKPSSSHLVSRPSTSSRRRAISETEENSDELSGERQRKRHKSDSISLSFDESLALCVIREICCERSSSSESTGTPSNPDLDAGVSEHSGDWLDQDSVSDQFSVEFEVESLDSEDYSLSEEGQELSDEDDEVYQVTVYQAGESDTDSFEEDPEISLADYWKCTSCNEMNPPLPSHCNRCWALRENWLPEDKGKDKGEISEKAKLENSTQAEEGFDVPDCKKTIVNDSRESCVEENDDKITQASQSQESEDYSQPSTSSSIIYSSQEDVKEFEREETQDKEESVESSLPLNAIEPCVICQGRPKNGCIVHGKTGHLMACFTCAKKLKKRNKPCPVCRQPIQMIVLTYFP
Conditions: not given
With `COc1cccc(C2=NN(c3ccc(Cl)cc3)C(c3cccc(Cl)c3)C2)c1` (stereo not drawn), the inhibition entry is “inactive”.

With `CCOc1ccccc1C1=NN(c2ccc(Cl)cc2)C(c2ccc(Cl)cc2)C1C(=O)N1CCOCC1` (stereo not drawn), the inhibition entry was “inactive”.

Regarding `CC(C)(C)C1=NN(c2ccc(Br)cc2)C(c2ccc(Cl)cc2)C1` (stereo not drawn), the inhibition result is “Active”.

On to `CC(C)(C)C1=NN(c2ccc(Cl)cc2)C(c2ccc(Cl)cc2)C1C(=O)N1CCOCC1` (stereo not drawn), for which the inhibition entry was “Active”.

Consider `CC(C)(C)C1=NN(c2ccc(Cl)cc2)C(c2ccc(Cl)c(Cl)c2)C1` (stereo not drawn), for which the inhibition result is “Active”.

Regarding `COc1ccc(C2=NN(c3ccccc3Cl)C(c3cccc(Cl)c3)C2)cc1` (stereo not drawn), the inhibition entry was “inactive”.

As for `CC(C)(C)C1=NN(c2ccc(Cl)cc2)C(c2ccc(Cl)cc2)C1` (stereo not drawn), the inhibition entry was “Active”.

For `CC(C)(C)C1=NN(c2ccc(Cl)cc2)C(c2ccc3ccccc3c2)C1` (stereo not drawn), the inhibition result is “Active”.

Turning to `COc1cccc(C2=NN(c3ccccc3Cl)C(c3ccccc3Cl)C2)c1` (stereo not drawn), the inhibition entry is “inactive”.

Turning to `COc1ccccc1C1=NN(c2cccc(Cl)c2)C(c2cccc(Cl)c2)C1` (stereo not drawn), the inhibition result is “inactive”.

On to `COc1ccccc1C1=NN(c2ccccc2Cl)C(c2cccc(Cl)c2)C1` (stereo not drawn), for which the inhibition entry is “inactive”.

System in the next series: not listed separately
In words: Cytotoxicity against human H1299 cells after 72 hrs by CellTiterGlo luciferase-based assay. Format: functional, cell-based. The following applies: NCI-H1299, 72 h.
Turning to `COc1ccc(C2=N[C@@H](c3ccc(Cl)cc3)[C@@H](c3ccc(Cl)cc3)N2C(=O)N2CCNC(=O)C2)c(OC(C)C)c1` [NUTLIN-3], the pIC50 was 4.83.

In the case of `CCOc1ccccc1C1=NN(c2ccc(Cl)cc2)C(c2ccc(Cl)cc2)C1C(=O)N1CCOCC1` (stereo not drawn), the negative logarithm of the IC50 (pIC50) was 5.08.

For the molecule `CC(C)(C)C1=NN(c2ccc(Br)cc2)C(c2ccc(Cl)cc2)C1` (stereo not drawn), the pIC50 was 4.71.

As to `CC(C)(C)C1=NN(c2ccc(Cl)cc2)C(c2ccc(Cl)cc2)C1C(=O)N1CCOCC1` (stereo not drawn), the pIC50 was 4.85.

Molecule `CC(C)(C)C1=NN(c2ccc(Cl)cc2)C(c2ccc(Cl)c(Cl)c2)C1` (stereo not drawn) showed a pIC50 of 4.83.

`COc1ccc(C2=NN(c3ccccc3Cl)C(c3cccc(Cl)c3)C2)cc1` (stereo not drawn): the pIC50 was 5.14.

For the molecule `CC(C)(C)C1=NN(c2ccc(Cl)cc2)C(c2ccc(Cl)cc2)C1` (stereo not drawn), the pIC50 was 4.71.

In turn, `COc1cccc(C2=NN(c3ccccc3Cl)C(c3ccccc3Cl)C2)c1` (stereo not drawn) gave a pIC50 of 4.87.

Molecule `COc1ccccc1C1=NN(c2cccc(Cl)c2)C(c2cccc(Cl)c2)C1` (stereo not drawn) had a negative-log IC50 (pIC50) of 4.93.

In the case of `COc1ccccc1C1=NN(c2ccccc2Cl)C(c2cccc(Cl)c2)C1` (stereo not drawn), the pIC50 is 4.87.

The subject of another series is NCI-H1299. In words: Cytotoxicity against human H1299 cells at 20 uM after 72 hrs by CellTiterGlo luciferase-based assay.
Conditions: not given
It counts as functional, cell-based.
Take `COc1ccc(C2=NN(c3cccc(Cl)c3)C(c3ccccc3Cl)C2)cc1` (stereo not drawn): the inhibition entry is “Active”.

In another series the target is E3 ubiquitin-protein ligase Mdm2 (Homo sapiens) (UniProt Q00987). Put plainly: Displacement of carboxyfluorescein-labeled LTFEHYWAQLTS-FAM from MDM2 (unknown origin) (2 to 125) at 0.005 to 1 mM by fluorescence anisotropic analysis.
Conditions: not given
As to `COc1cccc(C2=NN(c3ccc(Cl)cc3)C(c3cccc(Cl)c3)C2)c1` (stereo not drawn), the inhibition entry is “inactive”.

On to `CCOc1ccccc1C1=NN(c2ccc(Cl)cc2)C(c2ccc(Cl)cc2)C1C(=O)N1CCOCC1` (stereo not drawn), for which the inhibition result was “inactive”.

For `CC(C)(C)C1=NN(c2ccc(Br)cc2)C(c2ccc(Cl)cc2)C1` (stereo not drawn), the inhibition result was “Active”.

For `CC(C)(C)C1=NN(c2ccc(Cl)cc2)C(c2ccc(Cl)cc2)C1C(=O)N1CCOCC1` (stereo not drawn), the inhibition entry was “Active”.

With `CC(C)(C)C1=NN(c2ccc(Cl)cc2)C(c2ccc(Cl)c(Cl)c2)C1` (stereo not drawn), the inhibition entry was “Active”.

`COc1ccc(C2=NN(c3ccccc3Cl)C(c3cccc(Cl)c3)C2)cc1` (stereo not drawn): the inhibition entry was “inactive”.

For `CC(C)(C)C1=NN(c2ccc(Cl)cc2)C(c2ccc(Cl)cc2)C1` (stereo not drawn), the inhibition entry is “Active”.

Turning to `CC(C)(C)C1=NN(c2ccc(Cl)cc2)C(c2ccc3ccccc3c2)C1` (stereo not drawn), the inhibition result is “Active”.

As to `COc1cccc(C2=NN(c3ccccc3Cl)C(c3ccccc3Cl)C2)c1` (stereo not drawn), the inhibition entry was “inactive”.

On to `COc1ccccc1C1=NN(c2cccc(Cl)c2)C(c2cccc(Cl)c2)C1` (stereo not drawn), for which the inhibition result was “inactive”.

For `COc1ccccc1C1=NN(c2ccccc2Cl)C(c2cccc(Cl)c2)C1` (stereo not drawn), the inhibition entry is “inactive”.

System in a further series: not listed separately
Put plainly: Ratio of IC50 for human H1299 cells to IC50 for human HCT116 cells. As to conditions: H1299 cells and HCT116 cells.
With `COc1ccc(C2=N[C@@H](c3ccc(Cl)cc3)[C@@H](c3ccc(Cl)cc3)N2C(=O)N2CCNC(=O)C2)c(OC(C)C)c1` [NUTLIN-3], the selectivity ratio amounted to 9.

Another series has as its target Cellular tumor antigen p53 (Homo sapiens) (UniProt P04637). Put plainly: Induction of p53 translocation in human HCT116 cells assessed as protein nuclear to cytosolic ratio at 30 uM after 20 hrs by immunofluorescence analysis. As to conditions: HCT-116. It counts as cell-based.
Regarding `COc1cccc(C2=NN(c3ccccc3Cl)C(c3ccccc3Cl)C2)c1` (stereo not drawn), the result was inactive.
